Data taken from paper PMC10648852, “Molecular drivers of resistance to sulbactam-durlobactam in contemporary clinical isolates of Acinetobacter baumannii” (Antimicrobial Agents and Chemotherapy, 2023).

Columns and labels:
Experiment in all cases: microbe, parasite or virus in culture
[1] = test system: ABC clinical isolates with SUL-DUR MIC > 4 µg/mL; format: cell-based, Acinetobacter baumannii-calcoaceticus complex
How it was run: (§1)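 Broth microdilution MICs following CLSI methods, interpreted with CLSI breakpoints where available. Sulbactam tested as twofold dilutions combined with fixed 4 µg/mL durlobactam.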

[2] = test system: A. baumannii clinical isolates; format: cell-based
How it was run: as §1

[3] = test system: A. nosocomialis clinical isolate; format: cell-based; conditions: isolate ARC7023 (IHMA 2118812), France, BSI, 2019
How it was run: as §1

[4] = test system: A. pittii clinical isolates; format: cell-based
How it was run: as §1

colistin [CST]
MIC50 [1]: 0.5 mg/L
MIC90 [1]: 1 mg/L
MIC Max [1]: >8 mg/L
MIC Min [1]: ≤0.25 mg/L
MIC ([2]; isolate ARC6644 (IHMA 1420327), Mexico, UTI, 2016): ≤0.25 mg/L
MIC ([2]; isolate ARC6645 (IHMA 1435703), France, UTI, 2016): ≤0.25 mg/L
MIC ([2]; isolate ARC6646 (IHMA 1484127), United States, RTI, 2016): 0.5 mg/L
MIC ([2]; isolate ARC6647 (IHMA 1386786), Argentina, RTI, 2016): 0.5 mg/L
MIC ([2]; isolate ARC6648 (IHMA 1407634), Spain, RTI, 2016): ≤0.25 mg/L
MIC ([2]; isolate ARC6650 (IHMA 1457337), Argentina, RTI, 2016): 0.5 mg/L
MIC ([2]; isolate ARC6652 (IHMA 1465642), Belgium, RTI, 2016): ≤0.25 mg/L
MIC ([2]; isolate ARC6653 (IHMA 1308777), Vietnam, RTI, 2016): 0.5 mg/L
MIC ([2]; isolate ARC6799 (IHMA 1562935), Spain, UTI, 2017): 0.5 mg/L
MIC ([2]; isolate ARC6800 (IHMA 1557526), Turkey, RTI, 2017): >8 mg/L
MIC ([2]; isolate ARC6801 (IHMA 1662094), Thailand, RTI, 2017): ≤0.25 mg/L
MIC ([2]; isolate ARC6802 (IHMA 1557073), Spain, UTI, 2017): ≤0.25 mg/L
MIC ([2]; isolate ARC6803 (IHMA 1589408), Belgium, UTI, 2017): ≤0.25 mg/L
MIC ([2]; isolate ARC6805 (IHMA 1558650), United States, RTI, 2017): ≤0.25 mg/L
MIC ([2]; isolate ARC6808 (IHMA 1557168), Spain, RTI, 2017): ≤0.25 mg/L
MIC ([2]; isolate ARC6809 (IHMA 1699528), Guatemala, RTI, 2017): 0.5 mg/L
MIC ([2]; isolate ARC6810 (IHMA 1699548), Guatemala, RTI, 2017): 0.5 mg/L
MIC ([2]; isolate ARC6812 (IHMA 1699530), Guatemala, RTI, 2017): 0.5 mg/L
MIC ([2]; isolate ARC6813 (IHMA 1699543), Guatemala, UTI, 2017): ≤0.25 mg/L
MIC ([2]; isolate ARC6814 (IHMA 1699512), Guatemala, RTI, 2017): 0.5 mg/L
MIC ([2]; isolate ARC6815 (IHMA 1699513), Guatemala, RTI, 2017): 0.5 mg/L
MIC ([2]; isolate ARC6816 (IHMA 1699521), Guatemala, RTI, 2017): 0.5 mg/L
MIC ([2]; isolate ARC6817 (IHMA 1699523), Guatemala, RTI, 2017): 0.5 mg/L
MIC ([2]; isolate ARC6818 (IHMA 1683261), Thailand, RTI, 2017): ≤0.25 mg/L
MIC ([2]; isolate ARC6819 (IHMA 1683267), Thailand, RTI, 2017): 1 mg/L
MIC ([2]; isolate ARC6820 (IHMA 1647876), Argentina, RTI, 2017): ≤0.25 mg/L
MIC ([2]; isolate ARC6821 (IHMA 1699517), Guatemala, RTI, 2017): 0.5 mg/L
MIC ([2]; isolate ARC6822 (IHMA 1637626), Guatemala, RTI, 2017): 0.5 mg/L
MIC ([2]; isolate ARC6823 (IHMA 1620872), Greece, SSSI, 2017): 1 mg/L
MIC ([2]; isolate ARC6824 (IHMA 1625487), Argentina, BSI, 2017): 1 mg/L
MIC ([2]; isolate ARC6937 (IHMA 1562926), Spain, UTI, 2017): 0.5 mg/L
MIC ([2]; isolate ARC6950 (IHMA 1820064), Israel, RTI, 2018): 0.5 mg/L
MIC ([2]; isolate ARC6953 (IHMA 1909827), Turkey, IAI, 2018): 0.5 mg/L
MIC ([2]; isolate ARC6954 (IHMA 1838192), Guatemala, SSSI, 2018): 0.5 mg/L
MIC ([2]; isolate ARC6955 (IHMA 1825425), United States, RTI, 2018): 0.5 mg/L
MIC ([2]; isolate ARC7008 (IHMA 2009813), Thailand, BSI, 2019): 0.5 mg/L
MIC ([2]; isolate ARC7009 (IHMA 2043611), United States, UTI, 2019): 0.5 mg/L
MIC ([2]; isolate ARC7010 (IHMA 2043398), United States, RTI, 2019): 0.5 mg/L
MIC ([2]; isolate ARC7011 (IHMA 2104553), Germany, RTI, 2019): 0.5 mg/L
MIC ([2]; isolate ARC7012 (IHMA 2010001), Thailand, RTI, 2019): 1 mg/L
MIC ([2]; isolate ARC7013 (IHMA 1962831), Argentina, RTI, 2019): 0.5 mg/L
MIC ([2]; isolate ARC7014 (IHMA 2045328), Guatemala, IAI, 2019): 1 mg/L
MIC ([2]; isolate ARC7015 (IHMA 2045327), Guatemala, UTI, 2019): 0.5 mg/L
MIC ([2]; isolate ARC7016 (IHMA 2148441), Brazil, BSI, 2019): 0.5 mg/L
MIC ([2]; isolate ARC7017 (IHMA 2148446), Brazil, BSI, 2019): ≤0.25 mg/L
MIC ([2]; isolate ARC7018 (IHMA 2045454), Guatemala, IAI, 2019): 0.5 mg/L
MIC ([2]; isolate ARC7019 (IHMA 2114463), Thailand, RTI, 2019): 0.5 mg/L
MIC ([2]; isolate ARC7020 (IHMA 2045326), Guatemala, RTI, 2019): 0.5 mg/L
MIC ([2]; isolate ARC7021 (IHMA 1966347), Guatemala, RTI, 2019): 1 mg/L
MIC ([2]; isolate ARC7022 (IHMA 2045319), Guatemala, IAI, 2019): 0.5 mg/L
MIC ([2]; isolate ARC7024 (IHMA 2059448), Turkey, RTI, 2019): 1 mg/L
MIC ([2]; isolate ARC7025 (IHMA 2002121), Spain, RTI, 2019): 0.5 mg/L
MIC ([2]; isolate ARC7026 (IHMA 2104494), Guatemala, BSI, 2019): 0.5 mg/L
MIC ([2]; isolate ARC7082 (IHMA 2160640), Belgium, BSI, 2020): ≤0.25 mg/L
MIC ([2]; isolate ARC7083 (IHMA 2163687), United States, RTI, 2020): 0.5 mg/L
MIC ([2]; isolate ARC7084 (IHMA 2189596), Germany, RTI, 2020): ≤0.25 mg/L
MIC ([2]; isolate ARC7085 (IHMA 2205747), Guatemala, IAI, 2020): ≤0.25 mg/L
MIC ([2]; isolate ARC7086 (IHMA 2207563), Israel, RTI, 2020): ≤0.25 mg/L
MIC ([2]; isolate ARC7088 (IHMA 2215554), Turkey, BSI, 2020): ≤0.25 mg/L
MIC ([2]; isolate ARC7089 (IHMA 2240345), Argentina, BSI, 2020): ≤0.25 mg/L
MIC ([2]; isolate ARC7090 (IHMA 2244410), Poland, RTI, 2020): >8 mg/L
MIC ([2]; isolate ARC7091 (IHMA 2244564), Australia, RTI, 2020): ≤0.25 mg/L
MIC ([2]; isolate ARC7092 (IHMA 2258772), United States, BSI, 2020): 0.5 mg/L
MIC ([2]; isolate ARC7093 (IHMA 2258783), United States, RTI, 2020): ≤0.25 mg/L
MIC ([2]; isolate ARC7094 (IHMA 2296423), Turkey, RTI, 2020): ≤0.25 mg/L
MIC ([2]; isolate ARC7095 (IHMA 2320843), Turkey, BSI, 2020): ≤0.25 mg/L
MIC ([2]; isolate ARC7156 (IHMA 2455450), Greece, RTI, 2021): 8 mg/L
MIC ([2]; isolate ARC7158 (IHMA 2523738), Italy, BSI, 2021): 0.25 mg/L
MIC ([2]; isolate ARC7159 (IHMA 2456229), Malaysia, RTI, 2021): 0.25 mg/L
MIC ([2]; isolate ARC7160 (IHMA 2458626), Thailand, RTI, 2021): 0.25 mg/L
MIC ([2]; isolate ARC7161 (IHMA 2429252), Ukraine, RTI, 2021): 0.5 mg/L
MIC ([2]; isolate ARC7162 (IHMA 2411847), United States, BSI, 2021): 0.25 mg/L
MIC ([2]; isolate ARC7163 (IHMA 2477704), United States, BSI, 2021): 0.25 mg/L
MIC [3]: 1 mg/L
MIC ([4]; isolate ARC6949 (IHMA 1898982), Romania, RTI, 2018): 0.5 mg/L
MIC ([4]; isolate ARC6951 (IHMA 1776233), Philippines, RTI, 2018): ≤0.25 mg/L
MIC ([4]; isolate ARC6952 (IHMA 1899008), Romania, RTI, 2018): 1 mg/L
MIC ([4]; isolate ARC7087 (IHMA 2212062), Colombia, BSI, 2020): ≤0.25 mg/L
